Experimental data: PubChem BioAssay (NCI)
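Protocol summary: plate cells (96-well), add compound at 5 concentrations, incubate 48 h, interpolate endpoints linearly. At the GI50, growth is halved. The concentration for full growth arrest is given as TGI.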 Where a SMILES comes first, the peptide text is derived from it. [ ]: non-standard residue; d: D form. ξ: configuration not given here. Pentanoyl(2-O,4-OH,5-Cl) = O=C(O)C(O)CC(O)CCl; Ile(3ξ) = CCC(C)[C@H](N)C(=O)O; NMeV = CN[C@H](C(=O)O)C(C)C; NMeA = CN[C@@H](C)C(=O)O; βAla = NCCC(=O)O

Assays:
Experiment in all cases: NCI tumour cell line growth inhibition, 48 h
LXFL 529 NSCLC = tested on: LXFL 529 NSCLC
DMS 114 small cell lung = tested on: DMS 114 small cell lung
XF 498 CNS = tested on: XF 498 CNS
HOP-18 NSCLC = tested on: HOP-18 NSCLC
M19-MEL melanoma = tested on: M19-MEL melanoma
DMS 273 small cell lung = tested on: DMS 273 small cell lung
SNB-78 CNS = tested on: SNB-78 CNS
MDA-N = tested on: MDA-N
P388 leukemia = tested on: P388 leukemia
P388/ADR leukemia = tested on: P388/ADR leukemia
SN12K1 renal = tested on: SN12K1 renal
RXF-631 renal = tested on: RXF-631 renal

SMILES | TGI (LXFL 529 NSCLC) [µM] | TGI (DMS 114 small cell lung) [µM] | TGI (XF 498 CNS) [µM] | TGI (HOP-18 NSCLC) [µM] | TGI (M19-MEL melanoma) [µM] | TGI (DMS 273 small cell lung) [µM] | TGI (SNB-78 CNS) [µM] | TGI (MDA-N) [µM] | further results
CC(C)NC1CCCCC2c3ccccc3C12O (stereo unspecified) | > 100 | > 100 | > 100 | > 100 | > 100 | > 100 | > 100 | – | –
CCOc1ccc2c(c1)[n+]([O-])c(-c1ccccc1)c(N)[n+]2[O-] | > 100 | > 100 | > 100 | > 100 | > 100 | > 100 | – | – | –
COc1cc(OC)c(OC)cc1/C=C/c1ccccn1 | – | – | – | – | – | – | – | > 10 | –
O=C(c1ccccc1)[C@H]1Nc2ccc(Cl)cc2[C@H]2c3ccccc3O[C@H]21 | 28.5 | 40.1 | 28.2 | 24 | 39.5 | 38.7 | 32.3 | – | –
COC1C(OC(=O)/C=C/C=C/C=C/C=C/C(=O)O)CCC2(CO2)C1C1(C)OC1CC=C(C)C (stereo unspecified) | – | > 100 | > 100 | 94.8 | > 100 | > 100 | > 100 | > 100 | TGI (P388 leukemia): 29.1 µM; TGI (P388/ADR leukemia): > 49.2 µM; GI50 (MDA-N): 0.246 µM; TGI (SN12K1 renal): > 100 µM
CCN(CC)C(=O)c1cccc2c(OC)ccc(OC)c12 | > 100 | > 100 | – | > 100 | > 100 | > 100 | – | – | –
Cc1cc(C)c2c(c1)CSCc1cc(C)cc(C)c1-2 | > 100 | 69.9 | – | > 100 | 69.2 | > 100 | 62 | – | –
CN(N=O)C(=O)NC(CCCCNC(=O)OCc1ccccc1)C(=O)OCc1ccccc1 (stereo unspecified) | 94 | 72.6 | 30.6 | – | 91.2 | > 100 | 60.4 | – | TGI (RXF-631 renal): 44.8 µM
Cc1cccc(-c2nc(=S)[nH][nH]2)c1 | > 100 | – | > 100 | > 100 | > 100 | > 100 | > 100 | – | TGI (RXF-631 renal): > 100 µM
CCN(CC)P(=O)(c1ccc2c(c1)OCCOCCOCCOCCO2)N(CC)CC | – | – | – | – | – | – | – | > 100 | –
CC(=O)Oc1ccc2c(c1)O/C(=C\c1ccc(N(C)C)cc1)C2=O | – | – | – | – | – | – | – | > 100 | –
COc1ccc(/C=C2\C(=O)N(C(=O)c3ccc(NC(C)=O)cc3)N=C2C)cc1OC | – | > 100 | > 100 | > 100 | > 100 | > 100 | > 100 | – | –
O=S(=O)(c1ccccc1)N1CCC1c1ccccc1 (stereo unspecified) | – | > 100 | > 100 | > 100 | > 100 | > 100 | > 100 | – | TGI (RXF-631 renal): > 100 µM
CN(C)CCN1C(=O)c2cccc3cc(N)cc(c23)C1=O | – | 12.7 | 3.64 | 33.7 | 12.5 | 8.22 | – | 13.4 | TGI (P388 leukemia): 12.1 µM; TGI (P388/ADR leukemia): 11.8 µM; TGI (SN12K1 renal): 7.43 µM
Cc1cnoc1/N=C1\C=C(Nc2oncc2C)C(=O)c2ccccc21 | > 100 | > 100 | > 100 | > 100 | – | > 100 | > 100 | – | TGI (RXF-631 renal): > 100 µM
O=C(c1ccccc1)c1nc2ccc(Cl)cc2cc1C(Br)Br | 0.77 | 4.02 | 2.5 | 1.31 | 1.49 | 0.966 | – | – | –
[N-]=[N+]=NC1C(Cl)C(=O)NC(=O)N1[C@H]1C[C@H](O)[C@@H](CO)O1 (stereo partly specified) | > 100 | > 100 | > 100 | – | > 100 | > 100 | > 100 | – | TGI (RXF-631 renal): > 100 µM; GI50 (M19-MEL melanoma): 52.1 µM
CC(C)CC(NC(=O)C(O)C(N)Cc1ccccc1)C(=O)O (stereo unspecified) | – | – | – | – | – | – | – | > 100 | –
CC(C)(Sc1cc(C(C)(C)C)c(O)c(C(C)(C)C)c1)Sc1cc(C(C)(C)C)c(O)c(C(C)(C)C)c1 | – | – | – | – | – | – | – | > 100 | –
CC1=NC2(C(=O)O)C3(C(=O)O)N=C(C)OC3(C(F)(F)F)C2(C(F)(F)F)O1 (stereo unspecified) | – | > 100 | > 100 | > 100 | > 100 | > 100 | > 100 | – | –
COc1cccc(C2CC(C)(O)Oc3cc4c(cc32)OCO4)c1 (stereo unspecified) | – | – | – | – | – | – | – | 7.84 | –
Clc1ccc(NCNC2Nc3ccccc3N2)cc1Cl | – | – | – | – | – | – | – | > 100 | –
CN(c1ccccc1)c1nc(=[N+](C)C)ss1 | > 100 | > 100 | > 100 | > 100 | > 100 | > 100 | > 100 | – | –
O=C(O)c1c2c(c(O)c3c1CN(C1CCCCC1)CO3)OCN(C1CCCCC1)C2 | – | – | – | – | – | – | – | > 100 | –
NC(=O)N/N=C(\Cc1cc(=O)oc2cc(O)ccc12)C(=O)Nc1ccccc1C(N)=O | – | – | – | – | – | – | – | > 100 | –

SMILES | TGI (LXFL 529 NSCLC) [µM] | TGI (DMS 114 small cell lung) [µM] | TGI (XF 498 CNS) [µM] | TGI (HOP-18 NSCLC) [µM] | TGI (M19-MEL melanoma) [µM] | TGI (DMS 273 small cell lung) [µM] | TGI (SNB-78 CNS) [µM] | TGI (MDA-N) [µM] | further results
CN(C)C(=C1C(Br)=C(Br)C(Br)=C1Br)N(C)C | > 100 | > 100 | – | > 100 | > 100 | > 100 | – | – | –
C[C@]12CC[C@H]3[C@@H](CCC4=CC(=O)CC[C@@]43C)[C@]1(O)CC[C@]2(O)C(=O)CO | – | – | – | – | – | – | – | > 100 | –
Cc1c2ccccc2c(=O)n2c(-c3ccccn3)cccc12 | – | > 100 | > 100 | > 100 | > 100 | > 100 | > 100 | – | –
CC(C)OC(=O)Nc1c([N+](=O)[O-])cc(C(F)(F)F)cc1[N+](=O)[O-] | > 100 | – | > 55.7 | > 100 | – | > 100 | > 100 | > 100 | –
O=S1(=O)[C@H](c2ccccc2)c2c(-c3ccccc3)sc(-c3ccccc3)c2[C@@H]1c1ccccc1 | > 100 | > 100 | – | > 100 | > 100 | > 100 | – | – | –
CCOc1ccc2c(c1)[n+]([O-])c(C(N)=O)c(N)[n+]2[O-] | > 100 | > 100 | > 100 | > 100 | > 100 | > 100 | > 100 | – | –
COC(=O)C1=C(C(=O)OC)C23CC4CCC2(C(=O)C1O3)C4(C)C (stereo unspecified) | > 100 | – | > 100 | > 100 | > 100 | – | – | – | –
COc1ccc2c(c1[N+](=O)[O-])CC[C@@H]1[C@@H]2CC[C@]2(C)C(=O)CC[C@@H]12 | – | 25 | 25 | > 25 | > 25 | > 25 | 25 | > 1000 | TGI (P388 leukemia): > 25 µM; TGI (P388/ADR leukemia): 25 µM; GI50 (MDA-N): > 25 µM; TGI (SN12K1 renal): > 25 µM
CCC(=O)N1C(=S)SC[C@H]1C(=O)OC | > 100 | > 100 | > 100 | > 100 | > 100 | > 100 | > 100 | – | –
Cc1cc[c]([Sb]2[O]C(CO)C(C(O)C(O)C(=O)O)[O]2)cc1 (stereo unspecified) | – | – | – | – | – | – | – | > 100 | GI50 (MDA-N): 43.5 µM
O=NN(CC1(O)OCC(O)C(O)C1O)C(Cc1c[nH]c2ccccc12)C(=O)O (stereo unspecified) | – | > 100 | > 100 | – | > 100 | > 100 | > 100 | – | TGI (RXF-631 renal): > 100 µM
O=c1oc2ccccc2cc1P(=O)(O)O | – | – | – | – | – | – | – | > 100 | –
CCO/C(O)=c1/s/c(=C2/SC(=S)N(c3ccc(C)cc3)C2=O)n(-c2ccccc2)c1=N | > 100 | – | – | > 100 | > 100 | – | – | > 100 | –
COc1ccc(C(O)C(c2ccc(OCc3ccccc3)cc2)c2ccc(OCc3ccccc3)cc2)cc1 (stereo unspecified) | > 100 | > 100 | > 100 | – | > 100 | > 100 | > 100 | – | –
O=C1/C(=C/c2cc(O)c(O)c(O)c2)Oc2cc(O)cc(OC3OC(CO)C(O)C(O)C3O)c21 (stereo unspecified) | 28 | > 100 | – | > 100 | 37.1 | 3.67 | 68.5 | – | –
CSC(=Nc1ccc([N+](=O)[O-])cc1C#N)NC(=O)c1ccccc1 | > 100 | > 100 | > 100 | > 100 | > 100 | – | > 100 | – | TGI (RXF-631 renal): > 100 µM
O=c1c2ccccc2c(=O)n2n1-c1cccc(c1)CSSCc1cccc-2c1 | > 100 | > 100 | > 100 | > 100 | > 100 | > 100 | > 100 | – | GI50 (LXFL 529 NSCLC): > 100 µM; GI50 (DMS 114 small cell lung): > 100 µM; GI50 (RXF-631 renal): > 100 µM; TGI (RXF-631 renal): > 100 µM; GI50 (HOP-18 NSCLC): > 100 µM; GI50 (M19-MEL melanoma): > 100 µM; GI50 (DMS 273 small cell lung): > 100 µM
CCN(CC)CC(C(=O)Nc1c(C)cccc1C)/C(C)=N\NC(=S)NN (stereo unspecified) | > 100 | – | > 100 | – | > 100 | > 100 | – | – | TGI (RXF-631 renal): > 100 µM
O=C1CN=C(c2ccccc2)c2ccncc2N1 | > 100 | > 100 | > 100 | > 100 | > 100 | > 100 | > 100 | – | TGI (RXF-631 renal): > 100 µM
CCC(C)[C@@H]1NC(=O)[C@@H]2CCCN2C(=O)C(CC(O)CCl)OC(=O)CCNC(=O)[C@H](C)N(C)C(=O)[C@H](C(C)C)N(C)C1=O (stereo partly specified) (cyclo([Ile(3ξ)][NMeV][NMeA][βAla][Pentanoyl(2-O,4-OH,5-Cl)]P)) | – | – | – | – | – | – | – | > 100 | –
CCOP(=O)(OCC)C(C(=O)OC)C(=O)C(=O)Nc1cccc([N+](=O)[O-])c1 (stereo unspecified) | > 100 | > 100 | > 100 | > 100 | > 100 | > 100 | > 100 | – | TGI (RXF-631 renal): > 100 µM
CC(C)N1CCOC(c2ccc(O)c(O)c2)C1 (stereo unspecified) | > 100 | > 100 | > 100 | – | > 100 | > 100 | > 100 | – | TGI (RXF-631 renal): > 100 µM
CC(NC(=O)c1ccc(Cl)c(Cl)c1)c1ccc(-c2ccccc2)cc1 (stereo unspecified) | – | – | – | – | – | – | – | > 100 | –
OC(c1ccccc1)c1c(-c2ccccc2)[nH]c(-c2ccccc2)c1C(O)c1ccccc1 (stereo unspecified) | – | – | – | – | – | – | – | 7.2 | –
CC1COS(=O)N1c1ccccc1 (stereo unspecified) | > 100 | > 100 | > 100 | > 100 | > 100 | > 100 | – | – | –
